Results taken from US8952024B2, “Herbicidal pyrimidone derivatives” (E I du Pont de Nemours and Company, priority 2009, dated 2015).

Columns and labels:
Experiment in all cases: Test B pre-/postemergence plant response
Assay type in all cases: in vivo
[1] = test system: velvetleaf (Abutilon theophrasti)
In short: (§1)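 Steps: sow seed in loam–sand soil and spray preemergence, or grow plants in peat-based medium to 1–4 leaves (2–18 cm) and spray postemergence; formulation is non-phytotoxic solvent plus surfactant; hold in greenhouse 13–15 days; score visually vs controls, 0 = no effect, 100 = complete control.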

[2] = test system: johnsongrass (Sorghum halepense)
In short: as §1

wild oat (Avena fatua) = test system: wild oat (Avena fatua)
In short: as §1

[3] = test system: lambsquarters (Chenopodium album)
In short: as §1

[4] = test system: yellow nutsedge (Cyperus esculentus)
In short: as §1

soybean (Glycine max) = test system: soybean (Glycine max)
In short: as §1

[5] = test system: downy bromegrass (Bromus tectorum)
In short: as §1

[6] = test system: blackgrass (Alopecurus myosuroides)
In short: as §1

[7] = test system: pigweed (Amaranthus retroflexus)
In short: as §1

[8] = test system: large crabgrass (Digitaria sanguinalis)
In short: as §1

corn (Zea mays) = test system: corn (Zea mays)
In short: as §1

[9] = test system: Surinam grass (Brachiaria decumbens)
In short: as §1

[10] = test system: morningglory (Ipomoea coccinea)
In short: as §1

[11] = test system: green foxtail (Setaria viridis)
In short: as §1

[12] = test system: goosegrass (Eleusine indica)
In short: as §1

[13] = test system: woolly cupgrass (Eriochloa villosa)
In short: as §1

kochia (Kochia scoparia) = test system: kochia (Kochia scoparia)
In short: as §1

[14] = 31 g ai/ha, postemergence, scale 0 to 100, 0 is no effect, 100 is complete control
[15] = 62 g ai/ha, postemergence, 0 is no effect, 100 is complete control, 13 to 15 days
[16] = Postemergence, 250 g ai/ha, scale 0 to 100 (0 no effect, 100 complete control)
[17] = Postemergence, 125 g ai/ha, visual rating after 13 to 15 days, scale 0 (no effect) to 100 (complete control)

CCOCCn1c(-c2ccccc2)ncc(C(=O)C2=C(O)CCCC2=O)c1=O [Compound 96]
40: Plant response rating, Blackgrass [6, 16]
30: Plant response rating, Oat, Wild (wild oat (Avena fatua); [16]) | Plant response rating, Blackgrass [6, 17]
80: Plant response rating, Johnsongrass [2, 16] | Crabgrass, Large plant response rating (0 to 100 scale) [8, 15] | Plant response rating, Corn (corn (Zea mays); [16])
65: Plant response rating, Soybean (soybean (Glycine max); [14]) | Plant response rating, Corn (corn (Zea mays); [17]) | Plant response rating, Morningglory [10, 14] | Foxtail, Green plant response rating (0 to 100 scale) [11, 15] | Plant response rating, Kochia (kochia (Kochia scoparia); [14])
75: Soybean plant response rating (0 to 100 scale) (soybean (Glycine max); [15]) | Plant response rating, Crabgrass, Large [8, 14] | Plant response rating, Surinam Grass [9, 14] | Surinam Grass plant response rating (0 to 100 scale) [9, 15] | Cupgrass, Woolly plant response rating (0 to 100 scale) [13, 15]
45: Johnsongrass plant response rating (0 to 100 scale) [2, 15] | Plant response rating, Corn (corn (Zea mays); [14])
10: Plant response rating, Bromegrass, Downy [5, 16]
5: Oat, Wild plant response rating (0 to 100 scale) (wild oat (Avena fatua); [15]) | Plant response rating, Bromegrass, Downy [5, 17] | Plant response rating, Blackgrass [6, 14]
98: Velvetleaf plant response rating (0 to 100 scale) [1, 15] | Lambsquarters plant response rating (0 to 100 scale) [3, 15] | Plant response rating, Soybean (soybean (Glycine max); [16])
95: Plant response rating, Velvetleaf [1, 14] | Pigweed plant response rating (0 to 100 scale) [7, 15] | Morningglory plant response rating (0 to 100 scale) [10, 15]
20: Plant response rating, Johnsongrass [2, 14] | Blackgrass plant response rating (0 to 100 scale) [6, 15]
0: Plant response rating, Oat, Wild (wild oat (Avena fatua); [14]) | Plant response rating, Bromegrass, Downy [5, 14] | Bromegrass, Downy plant response rating (0 to 100 scale) [5, 15]
50: Plant response rating, Foxtail, Green [11, 14]
60: Corn plant response rating (0 to 100 scale) (corn (Zea mays); [15])
100: Plant response rating, Velvetleaf [1, 16] | Plant response rating, Lambsquarters [3, 16] | Plant response rating, Pigweed [7, 16] | Plant response rating, Morningglory [10, 16] | Plant response rating, Kochia (kochia (Kochia scoparia); [16])
70: Plant response rating, Nutsedge, Yellow [4, 14] | Nutsedge, Yellow plant response rating (0 to 100 scale) [4, 15] | Plant response rating, Goosegrass [12, 14] | Goosegrass plant response rating (0 to 100 scale) [12, 15] | Plant response rating, Cupgrass, Woolly [13, 14]
90: Plant response rating, Lambsquarters [3, 14] | Plant response rating, Pigweed [7, 14] | Plant response rating, Crabgrass, Large [8, 16]
85: Plant response rating, Nutsedge, Yellow [4, 16] | Plant response rating, Crabgrass, Large [8, 17] | Plant response rating, Surinam Grass [9, 16] | Plant response rating, Foxtail, Green [11, 16] | Plant response rating, Goosegrass [12, 16] | Plant response rating, Cupgrass, Woolly [13, 17] | Plant response rating, Cupgrass, Woolly [13, 16] | Kochia plant response rating (0 to 100 scale) (kochia (Kochia scoparia); [15])
